Test results published in patent US20180193412A1, “Method of In Vivo Treatment” (Hexima Limited, priority 2015, published 2018).

Assays:
[1] = tested on: C. glabrata; assay: Inhibition of growth of C. glabrata, Example 2 antifungal assay; type: cell-based; conditions: ½ strength PDB, 30° C., A595
Description: (§1) The inhibitory effects of the plant defensins on the growth of Candida albicans, Aspergillus fumigatus (obtained from the National Mycology Reference Centre, South Australia Pathology at the Women's and Children's Hospital, Adelaide, Australia), C. glabrata, C. tropicalis, A. flavus, A. niger, A. fumigants, Cryptococcus neoformans and C. gattii (obtained from Dee Carter, University of Sydney, New South Wales, Australia) are measured essentially as described by Broekaert et al. (1990) FEMS Microbiol Lett 69:55-59.
(§2) Spores of A. flavus. A. niger and A. fumigatus are isolated from sporulating fungus growing on ½ strength Sabouraud dextrose agar. Spores were removed from the plates by the addition of ½ strength potato dextrose broth (PDB). C. albicans, C. glabrata, C. tropicalis, C. neoformans and C. gattii cells are grown in Yeast Peptone Broth (YPD) for 16 h. Spore and cell concentrations are measured using a hemocytometer.
(§3) Antifungal assays are conducted in 96 well microtitre plates essentially as herein described. Wells are loaded with 20 μL of filter sterilized (0.22 μm syringe filter, Millipore) defensin (10× stock for each final concentration) or water and 80 μL of 5×10^4 spores/mL (A. flavus, A. niger, A. fumigatus), 5,000 cells/mL (C. albicans, C. glabrata, C. tropicalis) or 1×10^6 cells/mL (C. neoformans, C. gattii) in ½ strength PDB. The plates are incubated at 30° C. Fungal growth is assayed by measuring optical density at 595 nm (A595) using a microtitre plate reader (SpectraMax Pro M2; Molecular Devices. Growth is allowed to proceed until the optical density (OD) of the fungus in the absence of any test defensin reached an OD of 0.2. Each test is performed in duplicate.

[2] = tested on: C. albicans; assay: Inhibition of growth of Candida albicans, Example 2 antifungal assay; type: cell-based; conditions: Table 4; ½ strength PDB, 30° C., A595
Description: as §1, §2, §3

[3] = tested on: A. fumigatus; assay: Inhibition of growth of Aspergillus fumigatus, Example 2 antifungal assay; type: cell-based; conditions: ½ strength PDB, 30° C., A595
Description: as §1, §2, §3

[4] = tested on: M. fulvum; assay: Inhibition of growth of Microsporum fulvum by plant defensins (microtitre A595 antifungal assay); type: cell-based; conditions: for IC50 against M. fulvum: ½ strength PDB, 30° C., A595
Description: (§4) The inhibitory effects of the plant defensins on the growth of Trichophyton rubrum, T. interdigitale, Microsporum fulvum and C. albicans (all obtained from the National Mycology Reference Centre, South Australia Pathology at the Women's and Children's Hospital, Adelaide, Australia) are measured essentially as described by Broekaert et al. (1990) FEMS Microbiol Lett 69:55-59.
(§5) Spores of T. rubrum, T. interdigitale and M. fulvum are isolated from sporulating fungus growing on ½ strength Sabouraud dextrose agar. Spores were removed from the plates by the addition of ½ strength potato dextrose broth (PDB). C. albicans cells are grown in Yeast Peptone Broth (YPD) for 16 h. Spore and cell concentrations are measured using a hemocytometer.
as §3, with “Ξ m” for “μm”, “(T. rubrum, T. interdigitale, M. fulvum) or” for “(A. flavus, A. niger, A. fumigatus),”, “albicans)” for “albicans, C. glabrata, C. tropicalis) or 1×10^6 cells/mL (C. neoformans, C. gattii)”

[5] = tested on: C. tropicalis; assay: Inhibition of growth of C. tropicalis, Example 2 antifungal assay; type: cell-based; conditions: ½ strength PDB, 30° C., A595
Description: as §1, §2, §3

[6] = tested on: E. coli; type: cell-based, Escherichia coli; conditions: for IC50: Mueller-Hinton Broth, 37° C., 18 hours, up to 20 μM, read-out: IC50 against E. coli; for Inhibition of growth of E. coli: at the concentrations tested (0.3125-20 μM)
Description: (§6) A single E. coli or B. subtilis colony was used to inoculate 5 ml of Luria-Bertani media and grown overnight at 37° C. The following day, the optical density of the culture was measured and the bacteria diluted to an optical density at 600 nm (OD600) of 0.01 in Mueller-Hinton Broth. Diluted E. coli or B. subtilis were added to 96-well plates with defensins at concentrations of 20 μM, 10 μM, 5 μM, 2.5 μM, 1.25 μM, 0.625 μM or 0.3125 μM. Plates were read at OD595 to obtain time zero data points. Plates were incubated at 37° C. for 18 hours before reading again at OD595 to assess the amount of bacterial growth.

[7] = tested on: C. neoformans; assay: Inhibition of growth of Cryptococcus neoformans, Example 2 antifungal assay; type: cell-based; conditions: ½ strength PDB, 30° C., A595
Description: as §1, §2, §3

[8] = tested on: B. subtilis; assay: Inhibition of the growth of Bacillus subtilis (OD595, 18 hours); type: cell-based; conditions: for IC50: Mueller-Hinton Broth, 37° C., 18 hours, up to 20 μM, read-out: IC50 against B. subtilis; for Inhibition of growth of B. subtilis: at the concentrations tested (0.3125-20 μM)
Description: as §6

[9] = tested on: A. niger; assay: Inhibition of growth of A. niger, Example 2 antifungal assay; type: cell-based; conditions: ½ strength PDB, 30° C., A595
Description: as §1, §2, §3

[10] = tested on: C. gattii; assay: Inhibition of growth of C. gattii, Example 2 antifungal assay; type: cell-based; conditions: ½ strength PDB, 30° C., A595
Description: as §1, §2, §3

[11] = tested on: T. albicans; assay: Inhibition of growth of C. albicans by plant defensins, Example 1 (microtitre A595 antifungal assay); type: cell-based; conditions: for IC50 against T. albicans: Table 3, ½ strength PDB, 30° C., A595
Description: as §4, §5
as §3, with “Ξ m” for “μm”, “(T. rubrum, T. interdigitale, M. fulvum) or” for “(A. flavus, A. niger, A. fumigatus),”, “albicans)” for “albicans, C. glabrata, C. tropicalis) or 1×10^6 cells/mL (C. neoformans, C. gattii)”

[12] = tested on: A. flavus; assay: Inhibition of growth of A. flavus, Example 2 antifungal assay; type: cell-based; conditions: ½ strength PDB, 30° C., A595
Description: as §1, §2, §3

[13] = tested on: Trichophyton rubrum, T. interdigitale, Microsporum fulvum and C. albicans; assay: Inhibition assays of Example 1, summary across the range of fungal pathogens; type: cell-based; conditions: summary of Table 3, at the concentrations tested
Description: as §4, §5
as §3, with “Ξ m” for “μm”, “(T. rubrum, T. interdigitale, M. fulvum) or” for “(A. flavus, A. niger, A. fumigatus),”, “albicans)” for “albicans, C. glabrata, C. tropicalis) or 1×10^6 cells/mL (C. neoformans, C. gattii)”

[14] = tested on: T. rubrum; assay: Inhibition of growth of Trichophyton rubrum by plant defensins (microtitre A595 antifungal assay); type: cell-based; conditions: ½ strength PDB, 30° C.
Description: as §4, §5
as §3, with “Ξ m” for “μm”, “(T. rubrum, T. interdigitale, M. fulvum) or” for “(A. flavus, A. niger, A. fumigatus),”, “albicans)” for “albicans, C. glabrata, C. tropicalis) or 1×10^6 cells/mL (C. neoformans, C. gattii)”

Row | Compound | IC50 against C. glabrata [1] [µg/mL] | IC50 against C. albicans [2] [µg/mL] | IC50 against A. fumigatus [3] [µg/mL] | Inhibition of M. fulvum ([4]; summary of Table 3) | IC50 against M. fulvum [4] [µg/mL] | IC50 against C. tropicalis [5] [µg/mL] | IC50 [6] [µM] | Inhibition of growth of E. coli [6] | IC50 against C. neoformans [7] [µg/mL] | IC50 [8] [µM] | Inhibition of growth of B. subtilis [8] | IC50 against A. niger [9] [µg/mL] | IC50 against C. gattii [10] [µg/mL] | IC50 against T. albicans [11] [µg/mL] | Inhibition of C. albicans ([11]; summary of Table 3) | IC50 against A. flavus [12] [µg/mL] | Activity across the range of fungal pathogens [13] | IC50 against T. rubrum [14] [µg/mL]
1 | HXL002: Class I plant defensin from Triticum aestivum (RDCLSQSHKFKGACLSSSNCAAVCRTENFPDGECHTHNFARKCFCKRAC; HXL002 Triticum aestivum) | 15 | 35 | 25 | very poor inhibitors | 50 | 2 | > 20 | did not inhibit the growth | 2.5 | > 20 | did not inhibit the growth | 20 | 18 | 35 | very poor inhibitors |  |  | 
2 | HXL003: Class I plant defensin from Triticum aestivum (ARDCTSQSHKFVGLCLSDRNCASVCLTEYFTGGKCDHRRCVCTKGC; HXL003 Triticum aestivum) | >100 | >100 | >100 |  | >100 | 8 | > 20 | did not inhibit the growth | 3 | > 20 | did not inhibit the growth | >100 | 20 | >100 |  | >100 |  | 
3 | HXL009: Class I plant defensin from Zea mays (TVCMRHNNFYHGPCMSNKDCANSCVQHNLGVGGYCRGKIPFNKECMCTFEC; HXL009 Zea mays) | >100 | >100 | >100 |  | >100 | 12 | > 20 |  | 8 | > 20 |  | >100 | 38 | >100 |  | >100 | did not display any activity | 
4 | CC[C@H](C)[C@H](NC(=O)[C@H](CCCCN)NC(=O)[C@H](CCC(=O)O)NC(=O)[C@H](CCCCN)NC(=O)[C@H](CO)NC(=O)[C@H](CCCCN)NC(=O)[C@H](CCCNC(=N)N)NC(=O)[C@H](Cc1ccccc1)NC(=O)[C@H](Cc1ccccc1)NC(=O)[C@H](CC(=O)O)NC(=O)CNC(=O)[C@H](CC(C)C)NC(=O)[C@@H](N)CC(C)C)C(=O)NCC(=O)N[C@@H](CCCCN)C(=O)N[C@@H](CCC(=O)O)C(=O)N[C@@H](Cc1ccccc1)C(=O)N[C@@H](CCCCN)C(=O)N[C@@H](CCCNC(=N)N)C(=O)N[C@H](C(=O)N[C@H](C(=O)N[C@@H](CCC(N)=O)C(=O)N[C@@H](CCCNC(=N)N)C(=O)N[C@H](C(=O)N[C@@H](CCCCN)C(=O)N[C@@H](CC(=O)O)C(=O)N[C@@H](Cc1ccccc1)C(=O)N[C@@H](CC(C)C)C(=O)N[C@@H](CCCNC(=N)N)C(=O)N[C@@H](CC(N)=O)C(=O)N[C@@H](CC(C)C)C(=O)N[C@H](C(=O)N1CCC[C@H]1C(=O)N[C@@H](CCCNC(=N)N)C(=O)N[C@H](C(=O)N[C@@H](CCC(=O)O)C(=O)N[C@@H](CO)C(=O)O)[C@@H](C)O)C(C)C)[C@@H](C)CC)C(C)C)[C@@H](C)CC [LL37, reference compound] |  |  |  |  |  |  | 2.5 |  |  |  |  |  |  |  |  |  |  | 
5 | HXL001: Class I plant defensin from Zea mays (RHCLSQSHRFKGLCMSSNNCANVCQTENFPGGECKAEGATRKCFCKKIC; HXL001 Zea mays) | 32 | 35 | >100 |  | >100 | 6 | > 20 | did not inhibit the growth | 10 | > 20 | did not inhibit the growth | >100 | 40 | 35 |  | >100 | did not display any activity | >100
6 | HXL013: Class I plant defensin from Glycine max (KDCLTRRHGFQGRCLFDRQCAHVCRSDGFIGGQCRGPLRKCFCSRPC; HXL013 Glycine max) | 25 | 20 | >100 |  | 5.5 | 12 | > 20 |  | 9 | 10 |  | >100 | 22 | 20 |  | >100 | intermediate activity | 22
